Reference: PMC2760403 (The Journal of organic chemistry, 2009)

Target: T1, S. pombe Lumazine Synthase (Schizosaccharomyces pombe, UniProt Q9UUB1)
T1 sequence (Q9UUB1 1-159): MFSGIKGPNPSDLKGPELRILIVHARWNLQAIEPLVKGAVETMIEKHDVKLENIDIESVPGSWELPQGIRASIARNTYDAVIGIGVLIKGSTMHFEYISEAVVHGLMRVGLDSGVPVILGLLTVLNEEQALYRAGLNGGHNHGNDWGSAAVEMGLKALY
Experiment: Lumazine synthase kinetic inhibition assay
Format: biochemical
Settings: recombinant S. pombe LS

Structure (SMILES)	Mode of inhibition	Inhibitory activity in words
O=c1[nH]c(/C=C/c2ccccc2O)c([N+](=O)[O-])c(=O)[nH]1 [Compound 9, (E)-5-Nitro-6-(2-hydroxystyryl)pyrimidine-2,4(1H,3H)-dione]	Competitive	–
O=c1[nH]c(/C=C/c2cccc(O)c2)c([N+](=O)[O-])c(=O)[nH]1 [Compound 15, (E)-6-(3-Hydroxystyryl)-5-nitropyrimidine-2,4(1H,3H)-dione]	–	completely ineffective
O=c1[nH]c(/C=C/c2ccc(O)cc2)c([N+](=O)[O-])c(=O)[nH]1 [Compound 16, (E)-6-(4-Hydroxystyryl)-5-nitropyrimidine-2,4(1H,3H)-dione]	–	completely ineffective
O=c1[nH]c(/C=C/c2ccc([N+](=O)[O-])c(O)c2)c([N+](=O)[O-])c(=O)[nH]1 [Compound 35, (E)-6-(3-Hydroxy-4-nitrostyryl)-5-nitropyrimidine-2,4(1H,3H)-dione]	Mixed	–
COc1cccc(/C=C/c2[nH]c(=O)[nH]c(=O)c2[N+](=O)[O-])c1F [Compound 38, (E)-6-(2-Fluoro-3-methoxystyryl)-5-nitropyrimidine-2,4(1H,3H)-dione]	Mixed	–
O=c1[nH]c(C=Cc2ccccc2)c([N+](=O)[O-])c(=O)[nH]1 [Compound 39, 5-Nitro-6-styryluracil]	Competitive	–

Same assay, conditions: recombinant S. pombe LS; fit of the compound's data set; pH 7.0

Structure (SMILES)	kcat (rate constant ES → E + P) [s⁻¹]
O=c1[nH]c(/C=C/c2ccccc2O)c([N+](=O)[O-])c(=O)[nH]1 [Compound 9, (E)-5-Nitro-6-(2-hydroxystyryl)pyrimidine-2,4(1H,3H)-dione]	0.023 ± 0.0005
O=c1[nH]c(/C=C/c2ccc([N+](=O)[O-])c(O)c2)c([N+](=O)[O-])c(=O)[nH]1 [Compound 35, (E)-6-(3-Hydroxy-4-nitrostyryl)-5-nitropyrimidine-2,4(1H,3H)-dione]	0.0188 ± 0.00017
COc1cccc(/C=C/c2[nH]c(=O)[nH]c(=O)c2[N+](=O)[O-])c1F [Compound 38, (E)-6-(2-Fluoro-3-methoxystyryl)-5-nitropyrimidine-2,4(1H,3H)-dione]	0.0165 ± 0.00017
O=c1[nH]c(C=Cc2ccccc2)c([N+](=O)[O-])c(=O)[nH]1 [Compound 39, 5-Nitro-6-styryluracil]	0.0367 ± 0.0017

Same assay, conditions: recombinant S. pombe LS; substrate 1 varied, 2 constant; pH 7.0

Structure (SMILES)	Kis (inhibitor dissociation constant, ES + I ⇌ ESI) [µM]
O=c1[nH]c(/C=C/c2ccc([N+](=O)[O-])c(O)c2)c([N+](=O)[O-])c(=O)[nH]1 [Compound 35, (E)-6-(3-Hydroxy-4-nitrostyryl)-5-nitropyrimidine-2,4(1H,3H)-dione]	497 ± 159
COc1cccc(/C=C/c2[nH]c(=O)[nH]c(=O)c2[N+](=O)[O-])c1F [Compound 38, (E)-6-(2-Fluoro-3-methoxystyryl)-5-nitropyrimidine-2,4(1H,3H)-dione]	390 ± 90

Target: M. tuberculosis Lumazine Synthase (Mycobacterium tuberculosis, UniProt P9WHE9)
Experiment: not given
Format: biochemical
Settings: recombinant M. tuberculosis LS

Sequence of M. tuberculosis Lumazine Synthase (P9WHE9 whole entry): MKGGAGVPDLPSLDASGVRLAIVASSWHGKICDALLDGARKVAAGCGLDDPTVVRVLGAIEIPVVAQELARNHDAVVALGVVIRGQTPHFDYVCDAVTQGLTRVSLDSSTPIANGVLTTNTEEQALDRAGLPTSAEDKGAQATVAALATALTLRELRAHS

Structure (SMILES)	Mode of inhibition
O=c1[nH]c(/C=C/c2ccccc2O)c([N+](=O)[O-])c(=O)[nH]1 [Compound 9, (E)-5-Nitro-6-(2-hydroxystyryl)pyrimidine-2,4(1H,3H)-dione]	Competitive
O=c1[nH]c(/C=C/c2cccc(O)c2)c([N+](=O)[O-])c(=O)[nH]1 [Compound 15, (E)-6-(3-Hydroxystyryl)-5-nitropyrimidine-2,4(1H,3H)-dione]	Competitive
O=c1[nH]c(/C=C/c2ccc(O)cc2)c([N+](=O)[O-])c(=O)[nH]1 [Compound 16, (E)-6-(4-Hydroxystyryl)-5-nitropyrimidine-2,4(1H,3H)-dione]	Partial
O=c1[nH]c(/C=C/c2ccc([N+](=O)[O-])c(O)c2)c([N+](=O)[O-])c(=O)[nH]1 [Compound 35, (E)-6-(3-Hydroxy-4-nitrostyryl)-5-nitropyrimidine-2,4(1H,3H)-dione]	Competitive
COc1cccc(/C=C/c2[nH]c(=O)[nH]c(=O)c2[N+](=O)[O-])c1F [Compound 38, (E)-6-(2-Fluoro-3-methoxystyryl)-5-nitropyrimidine-2,4(1H,3H)-dione]	Mixed
O=c1[nH]c(C=Cc2ccccc2)c([N+](=O)[O-])c(=O)[nH]1 [Compound 39, 5-Nitro-6-styryluracil]	Partial

Same assay, conditions: recombinant M. tuberculosis LS; fit of the compound's data set; pH 7.0

Structure (SMILES)	kcat (rate constant ES → E + P) [s⁻¹]
O=c1[nH]c(/C=C/c2ccccc2O)c([N+](=O)[O-])c(=O)[nH]1 [Compound 9, (E)-5-Nitro-6-(2-hydroxystyryl)pyrimidine-2,4(1H,3H)-dione]	0.00433 ± 0.00017
O=c1[nH]c(/C=C/c2cccc(O)c2)c([N+](=O)[O-])c(=O)[nH]1 [Compound 15, (E)-6-(3-Hydroxystyryl)-5-nitropyrimidine-2,4(1H,3H)-dione]	0.00383 ± 0.00017
O=c1[nH]c(/C=C/c2ccc(O)cc2)c([N+](=O)[O-])c(=O)[nH]1 [Compound 16, (E)-6-(4-Hydroxystyryl)-5-nitropyrimidine-2,4(1H,3H)-dione]	0.00717 ± 0.00017
O=c1[nH]c(/C=C/c2ccc([N+](=O)[O-])c(O)c2)c([N+](=O)[O-])c(=O)[nH]1 [Compound 35, (E)-6-(3-Hydroxy-4-nitrostyryl)-5-nitropyrimidine-2,4(1H,3H)-dione]	0.00633 ± 0.00017
COc1cccc(/C=C/c2[nH]c(=O)[nH]c(=O)c2[N+](=O)[O-])c1F [Compound 38, (E)-6-(2-Fluoro-3-methoxystyryl)-5-nitropyrimidine-2,4(1H,3H)-dione]	0.00583 ± 0.00017

Same assay, conditions: recombinant M. tuberculosis LS; substrate 1 varied, 2 constant; pH 7.0

Structure (SMILES)	Kis (inhibitor dissociation constant, ES + I ⇌ ESI) [µM]
O=c1[nH]c(/C=C/c2ccc(O)cc2)c([N+](=O)[O-])c(=O)[nH]1 [Compound 16, (E)-6-(4-Hydroxystyryl)-5-nitropyrimidine-2,4(1H,3H)-dione]	17 ± 5
COc1cccc(/C=C/c2[nH]c(=O)[nH]c(=O)c2[N+](=O)[O-])c1F [Compound 38, (E)-6-(2-Fluoro-3-methoxystyryl)-5-nitropyrimidine-2,4(1H,3H)-dione]	89 ± 11
O=c1[nH]c(C=Cc2ccccc2)c([N+](=O)[O-])c(=O)[nH]1 [Compound 39, 5-Nitro-6-styryluracil]	15 ± 4

Target: M. tuberculosis Riboflavin Synthase (Mycobacterium tuberculosis, UniProt P9WK35)
Experiment: Riboflavin synthase kinetic inhibition assay
Format: biochemical
Settings: recombinant M. tuberculosis RS

Sequence of M. tuberculosis Riboflavin Synthase (P9WK35 whole entry): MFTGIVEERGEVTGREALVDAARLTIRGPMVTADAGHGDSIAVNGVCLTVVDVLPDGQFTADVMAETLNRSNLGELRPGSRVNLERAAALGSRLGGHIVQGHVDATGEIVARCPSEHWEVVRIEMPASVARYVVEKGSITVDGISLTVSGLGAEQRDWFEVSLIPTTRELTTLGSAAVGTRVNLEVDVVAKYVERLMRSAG

Structure (SMILES)	Mode of inhibition
O=c1[nH]c(/C=C/c2ccccc2O)c([N+](=O)[O-])c(=O)[nH]1 [Compound 9, (E)-5-Nitro-6-(2-hydroxystyryl)pyrimidine-2,4(1H,3H)-dione]	Uncompetitive

Same assay, conditions: recombinant M. tuberculosis RS; fit of the compound's data set; pH 7.0

Structure (SMILES)	kcat (rate constant ES → E + P) [s⁻¹]
O=c1[nH]c(/C=C/c2ccccc2O)c([N+](=O)[O-])c(=O)[nH]1 [Compound 9, (E)-5-Nitro-6-(2-hydroxystyryl)pyrimidine-2,4(1H,3H)-dione]	0.0683 ± 0.0033

Same assay, conditions: recombinant M. tuberculosis RS; pH 7.0

Structure (SMILES)	Kis (inhibitor dissociation constant, ES + I ⇌ ESI) [µM]
O=c1[nH]c(/C=C/c2ccccc2O)c([N+](=O)[O-])c(=O)[nH]1 [Compound 9, (E)-5-Nitro-6-(2-hydroxystyryl)pyrimidine-2,4(1H,3H)-dione]	917 ± 212

Target: E. coli Riboflavin Synthase (Escherichia coli, UniProt P0AFU8)
Experiment: Riboflavin synthase kinetic inhibition assay
Format: biochemical
Settings: recombinant E. coli RS

Sequence of E. coli Riboflavin Synthase (P0AFU8 whole entry): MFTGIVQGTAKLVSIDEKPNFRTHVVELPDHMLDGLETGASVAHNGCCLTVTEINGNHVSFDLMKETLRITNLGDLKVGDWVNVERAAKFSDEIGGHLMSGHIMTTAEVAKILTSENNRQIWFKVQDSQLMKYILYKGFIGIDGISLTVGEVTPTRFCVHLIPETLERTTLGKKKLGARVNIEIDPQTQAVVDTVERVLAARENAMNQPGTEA

Structure (SMILES)	Inhibitory activity in words	Mode of inhibition
O=c1[nH]c(/C=C/c2cccc(O)c2)c([N+](=O)[O-])c(=O)[nH]1 [Compound 15, (E)-6-(3-Hydroxystyryl)-5-nitropyrimidine-2,4(1H,3H)-dione]	completely ineffective	–
O=c1[nH]c(/C=C/c2ccc(O)cc2)c([N+](=O)[O-])c(=O)[nH]1 [Compound 16, (E)-6-(4-Hydroxystyryl)-5-nitropyrimidine-2,4(1H,3H)-dione]	completely ineffective	–
O=c1[nH]c(/C=C/c2ccc([N+](=O)[O-])c(O)c2)c([N+](=O)[O-])c(=O)[nH]1 [Compound 35, (E)-6-(3-Hydroxy-4-nitrostyryl)-5-nitropyrimidine-2,4(1H,3H)-dione]	–	Uncompetitive

Same assay, conditions: recombinant E. coli RS; fit of the compound's data set; pH 7.0

Structure (SMILES)	kcat (rate constant ES → E + P) [s⁻¹]
O=c1[nH]c(/C=C/c2ccc([N+](=O)[O-])c(O)c2)c([N+](=O)[O-])c(=O)[nH]1 [Compound 35, (E)-6-(3-Hydroxy-4-nitrostyryl)-5-nitropyrimidine-2,4(1H,3H)-dione]	0.0717 ± 0.0017

Same assay, conditions: recombinant E. coli RS; pH 7.0

Structure (SMILES)	Kis (inhibitor dissociation constant, ES + I ⇌ ESI) [µM]
O=c1[nH]c(/C=C/c2ccc([N+](=O)[O-])c(O)c2)c([N+](=O)[O-])c(=O)[nH]1 [Compound 35, (E)-6-(3-Hydroxy-4-nitrostyryl)-5-nitropyrimidine-2,4(1H,3H)-dione]	224 ± 22
